ChEMBL document CHEMBL1140940, “Pyrido[2,3-d]pyrimidin-5-ones: a novel class of antiinflammatory macrophage colony-stimulating factor-1 receptor inhibitors” (J Med Chem, 2009)
Calls of active or inactive are those of the source. No cut-off for these calls is given here.

Key:
[1] = molecular target: Platelet-derived growth factor receptor beta (Homo sapiens, UniProt P09619); assay: Inhibition of PDGFRbeta by fluorescence polarization competition immunoassay
[2] = Metabolic stability in monkey liver microsomes after 10 mins; format: ADME, Macaca mulatta, Microsome; settings: rhesus monkey, read-out: Stability
[3] = Volume of distribution at steady state in monkey at 2 mg/kg, iv; format: ADME, organism-based, Macaca mulatta; parameters: dose 2 mg/kg, route intravenous; settings: rhesus monkey, in vivo, read-out: Vdss
[4] = Clearance in mouse at 2 mg/kg, iv; format: ADME, organism-based; parameters: dose 2 mg/kg, route intravenous; settings: in vivo
Rattus norvegicus [5] = assay: Antiinflammatory effect in Freund's complete adjuvant-induced Lewis rat arthritis model assessed as prevention of osteoclastogenesis at 1 mg/kg, po twice daily administered on day 8 post adjuvant challenge measured on day 21 post adjuvant challenge relative to control; format: functional, organism-based; parameters: dose 1 mg/kg
[6] = Clearance in Sprague-Dawley rat at 2 mg/kg, iv; format: ADME, organism-based; parameters: dose 2 mg/kg, route intravenous; settings: in vivo
Rattus norvegicus [7] = assay: Inhibition of ankle swelling in Freund's complete adjuvant-induced Lewis rat arthritis model at 10 mg/kg, po twice daily administered on day 8 post adjuvant challenge measured on day 21 post adjuvant challenge relative to control; format: functional
Rattus norvegicus [8] = assay: Antiinflammatory effect in Freund's complete adjuvant-induced Lewis rat arthritis model assessed as prevention of bone lesion development at tibial tarsal joint at 1 mg/kg, po twice daily administered on day 8 post adjuvant challenge measured on day 21 post adjuvant challenge by microradiography; format: functional, organism-based; parameters: dose 1 mg/kg
Mus musculus = assay: Reduction of CSF1-induced increase in c-fos mRNA expression in B6C3F1 mouse at 3 mg/kg, po administered 6 hrs before CSF1 challenge measured 15 mins post CSF1 challenge relative to control; format: functional; parameters: scale not given: the % may be the effect or the level left
[9] = Plasma concentration in Freund's complete adjuvant-induced Lewis rat arthritis model at 1 mg/kg, po twice daily administered on day 8 post adjuvant challenge measured 7 days after last dose; format: ADME, organism-based; parameters: dose 1 mg/kg, route oral
Insulin receptor = Insulin receptor (Homo sapiens, UniProt P06213); assay: Inhibition of IRKbeta by fluorescence polarization competition immunoassay
Insulin receptor, sequence (P06213 28-758 limits assumed): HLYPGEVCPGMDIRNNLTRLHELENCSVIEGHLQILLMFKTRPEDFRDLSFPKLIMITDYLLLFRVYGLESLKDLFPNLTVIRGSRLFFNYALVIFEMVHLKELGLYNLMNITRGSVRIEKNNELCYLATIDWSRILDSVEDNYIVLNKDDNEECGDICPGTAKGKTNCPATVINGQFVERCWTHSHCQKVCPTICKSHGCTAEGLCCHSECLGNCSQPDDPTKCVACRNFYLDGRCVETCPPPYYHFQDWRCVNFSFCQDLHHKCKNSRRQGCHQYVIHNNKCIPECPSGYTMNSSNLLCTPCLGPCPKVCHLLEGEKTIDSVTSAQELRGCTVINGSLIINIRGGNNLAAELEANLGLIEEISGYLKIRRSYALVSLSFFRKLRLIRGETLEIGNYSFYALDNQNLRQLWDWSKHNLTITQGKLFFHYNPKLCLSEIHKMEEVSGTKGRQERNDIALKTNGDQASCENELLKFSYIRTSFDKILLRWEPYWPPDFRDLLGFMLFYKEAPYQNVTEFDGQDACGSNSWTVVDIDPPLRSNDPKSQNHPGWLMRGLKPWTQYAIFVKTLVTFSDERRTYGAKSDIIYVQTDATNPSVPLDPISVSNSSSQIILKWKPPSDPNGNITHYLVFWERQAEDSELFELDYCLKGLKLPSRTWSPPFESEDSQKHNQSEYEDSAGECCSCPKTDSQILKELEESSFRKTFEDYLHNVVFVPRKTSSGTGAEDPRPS
Insulin receptor, sequence (P06213 763-1382 limits assumed): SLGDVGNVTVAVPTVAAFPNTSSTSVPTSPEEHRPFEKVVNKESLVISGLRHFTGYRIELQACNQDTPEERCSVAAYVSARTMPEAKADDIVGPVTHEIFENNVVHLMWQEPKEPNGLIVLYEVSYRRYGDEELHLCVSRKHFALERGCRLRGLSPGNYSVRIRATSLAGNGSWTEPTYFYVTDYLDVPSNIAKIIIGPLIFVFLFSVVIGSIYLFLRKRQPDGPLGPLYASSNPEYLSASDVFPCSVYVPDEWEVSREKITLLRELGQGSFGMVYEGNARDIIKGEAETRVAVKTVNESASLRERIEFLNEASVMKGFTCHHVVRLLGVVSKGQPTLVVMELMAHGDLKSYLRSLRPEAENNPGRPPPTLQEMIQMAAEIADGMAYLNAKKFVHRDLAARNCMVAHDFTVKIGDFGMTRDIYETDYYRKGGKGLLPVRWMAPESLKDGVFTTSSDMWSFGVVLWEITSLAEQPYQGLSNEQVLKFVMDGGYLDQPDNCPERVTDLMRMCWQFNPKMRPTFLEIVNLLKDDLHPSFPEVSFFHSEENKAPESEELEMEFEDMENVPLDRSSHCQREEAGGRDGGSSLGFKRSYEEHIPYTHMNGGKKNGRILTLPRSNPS

[10] = molecular target: Mast/stem cell growth factor receptor Kit (Homo sapiens, UniProt P10721); assay: Inhibition of KIT by fluorescence polarization competition immunoassay
Mast/stem cell growth factor receptor Kit, sequence (P10721 whole entry): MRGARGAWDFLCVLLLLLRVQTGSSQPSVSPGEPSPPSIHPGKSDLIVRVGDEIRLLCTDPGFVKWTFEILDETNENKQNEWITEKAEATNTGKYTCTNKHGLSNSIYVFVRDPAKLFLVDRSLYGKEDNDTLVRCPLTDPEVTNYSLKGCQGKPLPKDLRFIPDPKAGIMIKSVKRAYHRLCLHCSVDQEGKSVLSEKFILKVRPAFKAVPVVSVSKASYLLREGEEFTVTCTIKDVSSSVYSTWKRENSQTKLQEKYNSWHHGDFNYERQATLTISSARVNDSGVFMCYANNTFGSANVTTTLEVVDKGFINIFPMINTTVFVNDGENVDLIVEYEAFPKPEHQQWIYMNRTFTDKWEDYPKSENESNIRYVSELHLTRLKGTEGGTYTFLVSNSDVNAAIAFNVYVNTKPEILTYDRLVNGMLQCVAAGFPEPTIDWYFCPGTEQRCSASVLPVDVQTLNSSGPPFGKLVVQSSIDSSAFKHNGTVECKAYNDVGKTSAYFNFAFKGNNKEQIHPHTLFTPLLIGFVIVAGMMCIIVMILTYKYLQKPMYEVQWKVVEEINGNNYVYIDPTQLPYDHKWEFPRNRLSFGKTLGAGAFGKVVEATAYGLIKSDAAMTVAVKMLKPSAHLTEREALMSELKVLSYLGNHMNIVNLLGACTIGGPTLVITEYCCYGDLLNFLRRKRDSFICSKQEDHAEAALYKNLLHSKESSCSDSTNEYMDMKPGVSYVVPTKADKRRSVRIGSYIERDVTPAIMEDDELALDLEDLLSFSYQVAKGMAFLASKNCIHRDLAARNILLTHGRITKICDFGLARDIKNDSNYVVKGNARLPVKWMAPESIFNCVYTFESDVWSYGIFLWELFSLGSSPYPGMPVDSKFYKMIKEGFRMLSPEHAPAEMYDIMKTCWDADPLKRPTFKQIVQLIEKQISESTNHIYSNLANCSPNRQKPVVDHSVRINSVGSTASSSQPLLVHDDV

[11] = molecular target: T1, Tyrosine-protein kinase receptor UFO (Homo sapiens, UniProt P30530); assay: Inhibition of Axl by fluorescence polarization competition immunoassay
T1 sequence (P30530 whole entry): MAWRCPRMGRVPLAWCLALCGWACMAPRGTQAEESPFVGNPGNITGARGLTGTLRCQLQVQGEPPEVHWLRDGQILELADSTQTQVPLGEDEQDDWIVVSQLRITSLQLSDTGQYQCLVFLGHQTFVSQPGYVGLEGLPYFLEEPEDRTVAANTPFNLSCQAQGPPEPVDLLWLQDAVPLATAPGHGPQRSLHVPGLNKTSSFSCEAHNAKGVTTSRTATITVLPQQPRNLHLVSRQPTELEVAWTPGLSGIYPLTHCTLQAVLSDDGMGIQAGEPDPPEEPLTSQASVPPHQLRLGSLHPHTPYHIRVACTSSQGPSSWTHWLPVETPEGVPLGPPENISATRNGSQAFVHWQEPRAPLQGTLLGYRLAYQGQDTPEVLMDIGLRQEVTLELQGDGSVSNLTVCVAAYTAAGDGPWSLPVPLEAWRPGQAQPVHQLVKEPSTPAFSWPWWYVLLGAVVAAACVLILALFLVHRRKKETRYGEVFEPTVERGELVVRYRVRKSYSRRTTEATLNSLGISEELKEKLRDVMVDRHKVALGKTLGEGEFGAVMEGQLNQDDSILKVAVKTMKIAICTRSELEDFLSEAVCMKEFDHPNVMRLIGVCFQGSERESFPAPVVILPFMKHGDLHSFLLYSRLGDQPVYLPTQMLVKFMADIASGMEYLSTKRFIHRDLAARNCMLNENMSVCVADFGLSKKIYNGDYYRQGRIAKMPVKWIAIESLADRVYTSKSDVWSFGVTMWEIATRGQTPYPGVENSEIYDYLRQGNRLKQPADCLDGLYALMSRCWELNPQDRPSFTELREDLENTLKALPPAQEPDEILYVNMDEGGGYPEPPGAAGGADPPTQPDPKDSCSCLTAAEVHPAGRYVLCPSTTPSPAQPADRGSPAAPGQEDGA

Rattus norvegicus [12] = assay: Antiinflammatory effect in Freund's complete adjuvant-induced Lewis rat arthritis model assessed as prevention of bone erosion at 3 mg/kg, po twice daily administered on day 8 post adjuvant challenge measured on day 21 post adjuvant challenge relative to control; format: functional, organism-based; parameters: dose 3 mg/kg
[13] = Metabolic stability in dog liver microsomes after 10 mins; format: ADME, Canis lupus familiaris, Microsome; settings: read-out: Stability
[14] = Cmax in dog at 10 mg/kg, po; format: ADME, organism-based, Canis lupus familiaris; parameters: dose 10 mg/kg, route oral; settings: in vivo
Rattus norvegicus [15] = assay: Antiinflammatory effect in Freund's complete adjuvant-induced Lewis rat arthritis model assessed as prevention of osteoclastogenesis at 3 mg/kg, po twice daily administered on day 8 post adjuvant challenge measured on day 21 post adjuvant challenge relative to control; format: functional, organism-based; parameters: dose 3 mg/kg
Rattus norvegicus [16] = assay: Toxicity in rat assessed as tolerability at 40 mg/kg; format: organism-based; parameters: dose 40 mg/kg; settings: in vivo
Rattus norvegicus [17] = assay: Toxicity in rat assessed as tolerability at 10 mg/kg; format: organism-based; parameters: dose 10 mg/kg; settings: in vivo
[18] = Half life in monkey at 2 mg/kg, iv; format: ADME, organism-based, Macaca mulatta; parameters: dose 2 mg/kg, route intravenous; settings: rhesus monkey, in vivo
[19] = Plasma concentration in Freund's complete adjuvant-induced Lewis rat arthritis model at 3 mg/kg, po twice daily administered on day 8 post adjuvant challenge measured 7 days after last dose; format: ADME, organism-based; parameters: dose 3 mg/kg, route oral
[20] = Plasma concentration in Freund's complete adjuvant-induced Lewis rat arthritis model at […], po twice daily administered on day 8 post adjuvant challenge measured 7 days after last dose; format: ADME, organism-based; parameters: dose 0.33 mg/kg, route oral
[21] = Volume of distribution at steady state in dog at 2 mg/kg, iv; format: ADME, organism-based, Canis lupus familiaris; parameters: dose 2 mg/kg, route intravenous; settings: in vivo, read-out: Vdss
[22] = Half life in mouse at 10 mg/kg, po; format: ADME, organism-based; parameters: dose 10 mg/kg, route oral; settings: in vivo
Rattus norvegicus [23] = assay: Reversal of ankle swelling in streptococcal cell wall-induced Lewis rat chronic arthritis model at 1 mg/kg, po twice daily administered on day 19 post streptococcal cell wall challenge; format: functional, organism-based; parameters: dose 1 mg/kg
[24] = molecular target: High affinity nerve growth factor receptor (Homo sapiens, UniProt P04629); assay: Inhibition of TrkA by fluorescence polarization competition immunoassay
High affinity nerve growth factor receptor, sequence (P04629 whole entry): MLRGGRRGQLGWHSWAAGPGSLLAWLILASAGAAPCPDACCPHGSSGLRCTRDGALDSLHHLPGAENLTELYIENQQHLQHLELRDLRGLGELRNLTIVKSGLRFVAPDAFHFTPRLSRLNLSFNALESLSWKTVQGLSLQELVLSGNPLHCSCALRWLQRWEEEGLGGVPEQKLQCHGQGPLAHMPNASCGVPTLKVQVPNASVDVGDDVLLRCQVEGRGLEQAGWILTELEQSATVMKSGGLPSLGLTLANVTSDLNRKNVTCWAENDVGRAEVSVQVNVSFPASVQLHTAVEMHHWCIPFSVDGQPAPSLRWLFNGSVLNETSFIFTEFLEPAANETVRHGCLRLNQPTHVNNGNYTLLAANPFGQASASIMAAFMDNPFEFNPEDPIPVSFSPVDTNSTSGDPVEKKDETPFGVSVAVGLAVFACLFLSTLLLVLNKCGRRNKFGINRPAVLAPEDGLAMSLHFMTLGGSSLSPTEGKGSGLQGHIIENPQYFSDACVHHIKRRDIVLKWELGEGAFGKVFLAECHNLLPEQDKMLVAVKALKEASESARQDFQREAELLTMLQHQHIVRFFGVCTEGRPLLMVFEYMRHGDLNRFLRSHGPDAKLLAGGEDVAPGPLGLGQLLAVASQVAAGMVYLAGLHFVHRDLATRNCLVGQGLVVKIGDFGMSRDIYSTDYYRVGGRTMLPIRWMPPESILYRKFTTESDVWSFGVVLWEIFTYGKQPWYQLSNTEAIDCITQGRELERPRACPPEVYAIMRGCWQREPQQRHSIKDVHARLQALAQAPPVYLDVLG

[25] = Volume of distribution at steady state in Sprague-Dawley rat at 2 mg/kg, iv; format: ADME, organism-based; parameters: dose 2 mg/kg, route intravenous; settings: in vivo, read-out: Vdss
Rattus norvegicus [26] = assay: Antiinflammatory effect in Freund's complete adjuvant-induced Lewis rat arthritis model assessed as prevention of bone erosion at 10 mg/kg, po twice daily administered on day 8 post adjuvant challenge measured on day 21 post adjuvant challenge relative to control; format: functional, organism-based; parameters: dose 10 mg/kg
[27] = Metabolic stability in human liver microsomes after 10 mins; format: ADME, Microsome; settings: read-out: Stability
[28] = Half life in Sprague-Dawley rat at 10 mg/kg, po; format: ADME, organism-based; parameters: dose 10 mg/kg, route oral; settings: in vivo
[29] = molecular target: Proto-oncogene tyrosine-protein kinase Src (Homo sapiens, UniProt P12931); assay: Inhibition of Src by fluorescence polarization competition immunoassay
Proto-oncogene tyrosine-protein kinase Src, sequence (P12931 2-536 limits assumed): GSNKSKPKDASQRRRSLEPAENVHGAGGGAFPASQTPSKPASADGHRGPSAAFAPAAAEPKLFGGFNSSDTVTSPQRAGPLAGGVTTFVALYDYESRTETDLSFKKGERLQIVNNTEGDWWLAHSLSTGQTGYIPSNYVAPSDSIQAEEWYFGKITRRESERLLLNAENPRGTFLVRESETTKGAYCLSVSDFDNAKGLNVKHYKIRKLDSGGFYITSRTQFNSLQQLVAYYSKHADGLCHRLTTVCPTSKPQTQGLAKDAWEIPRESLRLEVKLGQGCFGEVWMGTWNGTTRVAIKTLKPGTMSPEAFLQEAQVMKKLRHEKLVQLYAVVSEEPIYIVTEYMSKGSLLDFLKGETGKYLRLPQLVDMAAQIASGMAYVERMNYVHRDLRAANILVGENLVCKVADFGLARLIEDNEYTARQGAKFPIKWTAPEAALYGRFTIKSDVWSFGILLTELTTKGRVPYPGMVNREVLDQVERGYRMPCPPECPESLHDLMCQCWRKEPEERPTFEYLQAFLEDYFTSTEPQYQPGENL

Rattus norvegicus [30] = assay: Reversal of ankle swelling in streptococcal cell wall-induced Lewis rat chronic arthritis model at 10 mg/kg, po twice daily administered on day 19 post streptococcal cell wall challenge; format: functional, organism-based; parameters: dose 10 mg/kg
Rattus norvegicus [31] = assay: Inhibition of ankle swelling in Freund's complete adjuvant-induced Lewis rat arthritis model at 3 mg/kg, po twice daily administered on day 8 post adjuvant challenge measured on day 21 post adjuvant challenge relative to control; format: functional
[32] = Clearance in monkey at 2 mg/kg, iv; format: ADME, organism-based, Macaca mulatta; parameters: dose 2 mg/kg, route intravenous; settings: rhesus monkey, in vivo

Platelet-derived growth factor receptor beta, sequence (P09619 whole entry): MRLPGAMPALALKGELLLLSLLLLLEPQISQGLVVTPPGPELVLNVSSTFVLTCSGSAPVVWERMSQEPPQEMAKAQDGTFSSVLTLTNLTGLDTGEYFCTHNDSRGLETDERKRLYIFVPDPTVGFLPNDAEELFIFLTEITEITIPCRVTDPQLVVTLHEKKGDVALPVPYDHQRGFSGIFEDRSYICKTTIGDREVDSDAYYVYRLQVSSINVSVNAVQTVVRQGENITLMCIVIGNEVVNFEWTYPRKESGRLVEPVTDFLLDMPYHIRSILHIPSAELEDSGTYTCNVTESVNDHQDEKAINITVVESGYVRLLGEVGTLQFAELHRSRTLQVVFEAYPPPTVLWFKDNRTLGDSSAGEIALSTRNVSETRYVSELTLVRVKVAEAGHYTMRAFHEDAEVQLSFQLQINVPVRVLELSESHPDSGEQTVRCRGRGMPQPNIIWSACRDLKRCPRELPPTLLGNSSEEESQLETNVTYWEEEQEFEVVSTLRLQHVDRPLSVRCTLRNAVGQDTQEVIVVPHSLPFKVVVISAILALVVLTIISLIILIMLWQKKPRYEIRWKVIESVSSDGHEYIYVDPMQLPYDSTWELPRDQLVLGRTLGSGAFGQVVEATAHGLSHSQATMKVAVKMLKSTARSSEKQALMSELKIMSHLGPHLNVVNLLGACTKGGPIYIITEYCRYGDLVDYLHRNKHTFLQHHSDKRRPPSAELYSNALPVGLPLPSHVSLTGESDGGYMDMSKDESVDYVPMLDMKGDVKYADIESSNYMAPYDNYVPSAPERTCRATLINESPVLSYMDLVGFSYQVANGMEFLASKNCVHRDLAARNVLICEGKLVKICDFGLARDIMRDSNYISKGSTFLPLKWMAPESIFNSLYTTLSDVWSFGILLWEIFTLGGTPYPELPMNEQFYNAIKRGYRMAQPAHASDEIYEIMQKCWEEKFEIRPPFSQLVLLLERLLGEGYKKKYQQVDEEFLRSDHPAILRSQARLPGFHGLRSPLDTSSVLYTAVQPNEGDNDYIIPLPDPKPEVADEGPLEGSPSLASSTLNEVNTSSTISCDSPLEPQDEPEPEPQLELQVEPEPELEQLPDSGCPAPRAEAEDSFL

IC50 [1]: 150 nM
remaining at 10 min [2]: 14%
Vd [3]: 22.6 L/kg
clearance [4]: 34 mL/min/kg
clearance [6]: 11 mL/min/kg
concentration at 168 h [9]: 55 nM
IC50 (Insulin receptor): 3700 nM
IC50 [10]: 6 nM
IC50 [11]: > 1000 nM
remaining at 10 min [13]: 51%
Cmax [14]: 120 nM
half-life [18]: 6.6 h
concentration at 168 h [19]: 189 nM
concentration at 168 h [20]: 14 nM
Vd [21]: 20.3 L/kg
half-life [22]: 4 h
IC50 [24]: 500 nM
Vd [25]: 4.3 L/kg
remaining at 10 min [27]: 87%
half-life [28]: 6.9 h
IC50 [29]: 1400 nM
clearance [32]: 48.7 mL/min/kg
Compound: CONC(=O)c1cn(-c2ccc3c(c2)CCC3)c2nc(Nc3ccc(C4CCN(C)CC4)cc3)ncc2c1=O
Activity (Rattus norvegicus [5]): Active
inhibition in vivo at 10 mg/kg (Rattus norvegicus [7]): 17%
Activity (Rattus norvegicus [8]): Active
Activity (Mus musculus): 90%
Activity (Rattus norvegicus [12]): Active
Activity (Rattus norvegicus [15]): Active
Activity (Rattus norvegicus [16]): Non-toxic
Activity (Rattus norvegicus [17]): Non-toxic
Activity (Rattus norvegicus [23]): Active
Activity (Rattus norvegicus [26]): Active
Activity (Rattus norvegicus [30]): Active
inhibition in vivo at 3 mg/kg (Rattus norvegicus [31]): 8%
